Laboratory results reported in patent US12617767B2, “Crystalline forms of somatostatin modulators” (Crinetics Pharmaceuticals, Inc., priority 2019, dated 2026).
Values after ≈ are worked out from the molar mass of the structure shown. Read-outs that look alike come from different tables or passages of the source.

What was measured:
Format in all cases: physicochemical
[1] = Equilibrium solubility in simulated fluids and water at 37° C.; details: for solubility at 24 h: above calibration range
Protocol: The solubility Compound A⋅2MSA, Patterns A, B and I, was measured in water, fasted state simulated gastric fluid (FaSSGF) and fasted state simulated intestinal fluid (FaSSIF) at 37° C. by slurrying in the respective media for 24 hours. 1.5 mL of the fluid was stirred at 37° C. About 5 mg of the specified solid was added to FaSSIF and a thin slurry was immediately formed. As a test, approximately 80 and 60 mg of Pattern A was added to 1.5 mL of water and FaSSGF, respectively without formation of a slurry. Therefore, about 10 mg of the desired Pattern was added to water and FaSSGF solutions. The samples were allowed to stir at 37° C. for 24 hrs. The stir bars were removed from the FaSSIF vials and the solids allowed to settle for 0.5 hours at 37° C. The supernatant/solutions were syringe filtered and recovered for analysis by HPLC as well as for pH measurement.

[2] = Karl-Fischer titration for water determination
Protocol: Karl-Fischer titration for water determination was done using a Mettler Toledo C20S Coulometric KF Titrator equipped with a current generator cell with a diaphragm, and a doubleplatinum-pin electrode. Aquastar™ CombiCoulomat fritless reagent was used in both the anode and cathode compartments. Samples of approximately 0.03-0.10 g were dissolved in the anode compartment and titrated until the solution potential dropped below 100 mV. Hydranal 1 wt. % water standard is used for validation prior to sample analysis.

[3] = Storage at ambient conditions (XRPD); details: bulk, 6 days at ambient conditions; dimesylate
Protocol: Characterization after storage under ambient conditions: Pattern B was left at ambient conditions (21-22° C., 10-40% RH) for a week then characterized by)(RFD, TGA/DSC, and water content measured by Karl-Fischer titration. […] The water content was confirmed by KF titration which yielded a value of 4.20 wt. %.
Compound A⋅2MSA (Pattern A, 0.2622 g) was added to a 20 mL vial with a stir bar. Fifteen volumes (3.93 mL) of EtOH was added and the slurry was stirred overnight (˜20 hours). The slurry was sampled to confirm the correct pattern was generated, then the solids were collected by filtration. The resultant yellow solid was dried in a vacuum oven at 50° C. under dynamic vacuum for 2 hours, then under static vacuum overnight (˜16 hours) to yield 0.2015 g (77% yield). The in-situ sample drawn was dried for 3 hours then the solid was used for characterization by solution ^1H-NMR spectroscopy and simultaneous TGA/DSC. The bulk was dried overnight and used for stand-alone DSC, and thermal treatment.
(§1) Compound A⋅2MSA (Pattern A) was slurried in EtOH overnight at room temperature (ca. 16 hours). […] The bulk was dried in a vacuum oven at 50° C. under dynamic vacuum for 4.5 hours. The dried solids were removed from the oven and a “dry” XRPD analysis was collected.
Compound A⋅2MSA (Pattern A, 0.2659 g) was added to a 20 mL vial with a stir bar. Twenty-five volumes (6.65 mL) of ACN was added and the slurry was stirred overnight (˜20 hours). The slurry was sampled to confirm the correct pattern was generated, then the solids were collected by filtration. The resultant yellow solid was dried in a vacuum oven at 50° C. under dynamic vacuum for 2 hours, then under static vacuum overnight (˜16 hours) to yield 0.2255 g (85% yield). The sample drawn was dried for 3 hours then the solid was used for characterization by solution ^1H-NMR spectroscopy and simultaneous TGA/DSC. The bulk was dried overnight and used for stand-alone DSC.

[4] = Stability of XRPD pattern on drying; details: solids from short term slurries; vacuum oven at 50° C., minimum of 4 hours; dimesylate
Protocol: Short term slurries were carried out at two temperatures in 14 solvents. About 25 mg solid was added to a 2 mL vial followed by 0.70 mL of solvent. If all solids dissolved, more solid was added until a slurry was formed within reason. Slurries were stirred at constant temperature for four days (ambient temperature, 21-23° C.; or high temperature, 50° C.). After stirring for four days, solids were allowed to settle and were then recovered for XRPD analysis. XRPD analysis was performed on the wet cake, and if a new pattern was observed, the sample was dried in a vacuum oven at 50° C. for a minimum of 4 hours, then the dried sample was analyzed by XRPD.
Stability on Drying: A sample of Pattern B was prepared on an XRPD sample holder and analysed by XRPD to create a baseline. The disk was then left in a vacuum oven at 50° C. under static vacuum for 3 days. On the third day, the sample was removed from the oven and the “dry” pattern was recorded immediately.
as §1

[5] = Dynamic Vapor Sorption (DVS)
Protocol: Dynamic Vapor Sorption (DVS) was done using a DVS Intrinsic 1. The sample is loaded into a sample pan and suspended from a microbalance. A typical sample mass for DVS measurement is 25 mg. Nitrogen gas bubbled through distilled water provides the desired relative humidity.
A typical measurement comprises the steps: • 1—Equilibrate at 50% RH • 2-50% to 2%. (50%, 40%, 30%, 20%, 10% and 2%) • a. Hold minimum of 5 mins and maximum of 240 minutes at each humidity. The pass criteria is less than 0.002% change • 3-2% to 95% (2%, 10%, 20%, 30%, 40%, 50%, 60%, 70%, 80%, 90%, 95%) • a. Hold minimum of 5 mins and maximum of 240 minutes at each humidity. The pass criteria is less than 0.002% change • 4-95% to 2% (95%, 80%, 70%, 60%, 50%, 40%, 30%, 20%, 10%, 2%) • a. Hold minimum of 5 mins and maximum of 240 minutes at each humidity. The pass criteria is less than 0.002% change • 5-2% to 50% (2%, 10%, 20%, 30%, 40%, 50%) • a. Hold minimum of 5 mins and maximum of 240 minutes at each humidity. The pass criteria is less than 0.002% change Dynamic Vapor Sorption Isotherm Plots of Solid Forms of Compound A⋅2MSA

[6] = Humidity stress tests (XRPD, HPLC purity); details: 40° C./75% RH/7 days
Protocol: Pattern A was heated to 277° C., monitored by DSC. […] This material was exposed to ˜90% RH at room temperature and slurried in ACN and after 4 hours the Patterns B and I were recovered, respectively.
About 15 mg of Compound A⋅2MSA (Pattern A) was loaded into a 4 mL vial and the opening was covered with a Kimwipe. This was placed in a 20 mL vial with saturated aqueous K2SO4 and sealed to provide an environment of 94-96% Relative Humidity (RH) at room temperature (RT).
About 10 mg of Compound A⋅2MSA Pattern A and Pattern B were loaded into separate 4 mL vials. These were placed in 20 mL vials with saturated aqueous NaCl and sealed to provide an environment of 75% RH at 40° C. […] The same 1 week study was done with Pattern C (+I) and Pattern I, both remained stable by XRPD.

[7] = Slurries of amorphous material (dissolution at room temperature); details: room temperature (20-23° C.)
Protocol: About 22 mg of amorphous material was dispensed into vials and 0.5 mL (ca. 23 volumes) of the chosen solvent was added, and the mixture was stirred at room temperature (20-23° C.). A solution was formed in water and water saturated MeOAc. Additional solid was added to these solutions, but when a solution remained after roughly doubling the original solid quantity (ca. 90 mg/mL), further addition was ceased. All the other samples remained as slurries. After slurrying for 4 hours, an aliquot was taken for XRPD analysis of the slurry solids from all the samples except the water and water saturated MeOAc samples as they remained solutions. The mixtures continued to stir at room temperature overnight then the remaining slurry solids were collected (total slurry time of about 24 hours).

N#Cc1cccc(-c2ccc3ncc(-c4cc(F)cc(F)c4)c(N4CCC(N)CC4)c3c2)c1O [Compound A, 3-(4-(4-aminopiperidin-1-yl)-3-(3,5-difluorophenyl)quinolin-6-yl)-2-hydroxybenzonitrile]
pH (24 hr) ([1]; FaSSGF (pH 1.70)): 1.82 | comments ([1]; FaSSGF (pH 1.70), 24 hrs): dissolved | solubility at 24 h ([1]; FaSSGF, 37 °C, pH 1.7, fassgf or other biorelevant, thermodynamic from solid, FaSSGF (pH 1.70), 24 hrs, mg of Compound A (free base), read-out: Concentration): > 10.3 mg/mL | pH (24 hr) ([1]; FaSSIF (pH 6.48)): 6.11 | comments ([1]; FaSSIF (pH 6.48), 24 hrs): disproportionated | solubility thermodynamic at 24 h ([1]; FaSSIF, 37 °C, pH 6.48, fassif, thermodynamic from solid, FaSSIF (pH 6.48), 24 hrs, mg of Compound A (free base), read-out: Concentration): 9 µg/mL (≈ 0.0197 mM) | pH (24 hr) ([1]; water): 2.71 | solubility at 24 h ([1]; water, 37 °C, water, thermodynamic from solid, water, 24 hrs, mg of Compound A (free base), read-out: Concentration): > 9.77 mg/mL | comments ([1]; water, 24 hrs): dissolved | Water Content [2]: 1.5% w/w

CS(=O)(=O)O.CS(=O)(=O)O.N#Cc1cccc(-c2ccc3ncc(-c4cc(F)cc(F)c4)c(N4CCC(N)CC4)c3c2)c1O [Pattern I, 3-(4-(4-aminopiperidin-1-yl)-3-(3,5-difluorophenyl)quinolin-6-yl)-2-hydroxybenzonitrile dimesylate]
XRPD pattern after storage at ambient conditions [3]: a pattern with additional peaks | Water Content ([2]; dimesylate): 0.29% w/w | XRPD pattern upon drying [4]: stable upon drying | XRPD form after the DVS experiment ([5]; 2-95% RH, dimesylate): converted to Pattern B | reversible water uptake (DVS) ([5]; between 2% and 95% Relative Humidity (RH), dimesylate): 9.1 % w/w | water uptake (DVS) ([5]; between 15 and 75% RH): 2.5 % w/w | total mass difference on the desorption segment (DVS) ([5]; over the 2-95% RH range): 4.6% | total mass difference on the sorption segment (DVS) ([5]; over the 2-95% RH range): 9.1% | mass change (DVS) ([5]; range of 15-75% RH): 2.5 wt. %

CS(=O)(=O)O.CS(=O)(=O)O.N#Cc1cccc(-c2ccc3ncc(-c4cc(F)cc(F)c4)c(N4CCC(N)CC4)c3c2)c1O [C + I, 3-(4-(4-aminopiperidin-1-yl)-3-(3,5-difluorophenyl)quinolin-6-yl)-2-hydroxybenzonitrile dimesylate]
Output XRPD [6]: C + I

CS(=O)(=O)O.CS(=O)(=O)O.N#Cc1cccc(-c2ccc3ncc(-c4cc(F)cc(F)c4)c(N4CCC(N)CC4)c3c2)c1O [Amorphous Compound A⋅2MSA, 3-(4-(4-aminopiperidin-1-yl)-3-(3,5-difluorophenyl)quinolin-6-yl)-2-hydroxybenzonitrile dimesylate]
concentration at which a solution remained ([7]; water saturated MeOAc): > 90 mg/mL | concentration at which a solution remained ([7]; water): > 90 mg/mL
